Assay type in all cases: cell-based
In experiment [1] the test system is MDA-MB-231 cells. The experiment can be described thus: MDA-MB-231 cell proliferation assay (Cell-Titer-Glo, 120 hr). The following applies: for EC50: Homo sapiens, MDA-MB-231, 120 h, read-out: MDA-MB 231 Cell Prolif. 120 hr EC50; for MDA-MB 231 Cell Prolif. 120 hr YMin (%): minimal percent of DMSO control observed. An outline of the steps:
(§1)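 Growth inhibition was read as CellTiter-Glo luminescence after 120 h at 37 °C in RPMI/10% FBS, with 400 MKN45 or 800 MDA-MB-231 cells seeded per well. Compounds were tested in 10-point half-log series starting at 1 or 10 uM (0.1% DMSO), in triplicate for MKN45 and duplicate for MDA-MB-231. EC50 values are four-parameter fits to %DMSO control, and Ymin-obs is the minimal observed %DMSO.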

Experiment [2] addresses T1, WEE1 (Homo sapiens, UniProt P30291+Q96SW2).
T1 construct: C-terminal ePL-tagged (DiscoverX, Fremont, CA) full-length WEE1 expression construct; expressed in transfected cells; host or cells: LentiX-HEK293T (Invitrogen), lentivirally transduced; the cells also over-express GSPT1-GN
The experiment can be described thus: WEE1-ePL degradation assay (293T-LentiX, InCELL Hunter luminescence, 4 hr). The following applies: for DC50: LentiX-HEK293T cells expressing WEE1-ePL, 4 hr incubation, read-out: 293T-LentiX WEE1-ePL Degradation 4 hr EC50; for 293T-LentiX WEE1-ePL Degradation 4 hr YMin (%): lower limit of fit, % of DMSO control signal remaining. The method, boiled down: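 EC50 comes from a four-parameter logistic fit of ePL luminescence (InCELL Hunter), with DMSO control defining Ymax. Compounds ran as 10-point 3-fold dilutions from 1 or 10 µM for 4 h at 37 °C. Cells were HEK293T-LentiX with ePL-tagged full-length WEE1 and over-expressed Cereblon-resistant GSPT1-GN.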

In experiment [3] the test system is MKN45 cells. The experiment can be described thus: MKN45 cell proliferation assay (Cell-Titer-Glo, 120 hr). The following applies: for EC50: Homo sapiens, MKN-45, 120 h, read-out: MKN45 Cell Prolif. 120 hr EC50; for MKN45 Cell Prolif. 120 hr YMin (%): minimal percent of DMSO control observed. An outline of the steps:
as §1

In general, EC50 refers to the concentration at which the effect is half-maximal.

T1 sequence (P30291 whole entry): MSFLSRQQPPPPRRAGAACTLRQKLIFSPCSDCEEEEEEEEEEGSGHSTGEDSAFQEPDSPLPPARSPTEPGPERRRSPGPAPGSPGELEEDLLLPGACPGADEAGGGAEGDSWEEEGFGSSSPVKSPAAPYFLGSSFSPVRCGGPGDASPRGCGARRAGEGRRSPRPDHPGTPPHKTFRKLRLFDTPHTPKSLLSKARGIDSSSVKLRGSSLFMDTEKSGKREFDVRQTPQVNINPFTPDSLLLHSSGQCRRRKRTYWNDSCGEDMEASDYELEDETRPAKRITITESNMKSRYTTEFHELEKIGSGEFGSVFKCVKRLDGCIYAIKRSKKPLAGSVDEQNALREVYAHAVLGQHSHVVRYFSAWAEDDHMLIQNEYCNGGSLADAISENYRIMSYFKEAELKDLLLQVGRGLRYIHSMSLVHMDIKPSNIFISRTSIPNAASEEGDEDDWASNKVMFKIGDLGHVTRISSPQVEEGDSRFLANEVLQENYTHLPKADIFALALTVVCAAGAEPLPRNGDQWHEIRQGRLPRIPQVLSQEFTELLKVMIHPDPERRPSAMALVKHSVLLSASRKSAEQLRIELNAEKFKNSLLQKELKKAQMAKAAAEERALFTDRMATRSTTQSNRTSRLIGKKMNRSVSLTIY
T1 sequence (Q96SW2 whole entry): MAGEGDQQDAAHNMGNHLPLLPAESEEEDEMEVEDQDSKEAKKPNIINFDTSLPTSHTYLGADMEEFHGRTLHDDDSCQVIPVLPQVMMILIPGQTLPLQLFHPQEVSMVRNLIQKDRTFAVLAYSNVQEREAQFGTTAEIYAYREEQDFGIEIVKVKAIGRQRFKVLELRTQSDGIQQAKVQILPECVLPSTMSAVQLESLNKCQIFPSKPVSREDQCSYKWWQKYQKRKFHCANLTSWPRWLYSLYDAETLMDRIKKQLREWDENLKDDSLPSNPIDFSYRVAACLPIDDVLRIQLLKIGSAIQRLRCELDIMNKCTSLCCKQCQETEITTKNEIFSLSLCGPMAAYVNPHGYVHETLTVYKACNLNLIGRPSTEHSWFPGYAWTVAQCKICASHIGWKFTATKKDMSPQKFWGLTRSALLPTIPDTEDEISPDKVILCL
T1 sequence (Q16531 whole entry partner): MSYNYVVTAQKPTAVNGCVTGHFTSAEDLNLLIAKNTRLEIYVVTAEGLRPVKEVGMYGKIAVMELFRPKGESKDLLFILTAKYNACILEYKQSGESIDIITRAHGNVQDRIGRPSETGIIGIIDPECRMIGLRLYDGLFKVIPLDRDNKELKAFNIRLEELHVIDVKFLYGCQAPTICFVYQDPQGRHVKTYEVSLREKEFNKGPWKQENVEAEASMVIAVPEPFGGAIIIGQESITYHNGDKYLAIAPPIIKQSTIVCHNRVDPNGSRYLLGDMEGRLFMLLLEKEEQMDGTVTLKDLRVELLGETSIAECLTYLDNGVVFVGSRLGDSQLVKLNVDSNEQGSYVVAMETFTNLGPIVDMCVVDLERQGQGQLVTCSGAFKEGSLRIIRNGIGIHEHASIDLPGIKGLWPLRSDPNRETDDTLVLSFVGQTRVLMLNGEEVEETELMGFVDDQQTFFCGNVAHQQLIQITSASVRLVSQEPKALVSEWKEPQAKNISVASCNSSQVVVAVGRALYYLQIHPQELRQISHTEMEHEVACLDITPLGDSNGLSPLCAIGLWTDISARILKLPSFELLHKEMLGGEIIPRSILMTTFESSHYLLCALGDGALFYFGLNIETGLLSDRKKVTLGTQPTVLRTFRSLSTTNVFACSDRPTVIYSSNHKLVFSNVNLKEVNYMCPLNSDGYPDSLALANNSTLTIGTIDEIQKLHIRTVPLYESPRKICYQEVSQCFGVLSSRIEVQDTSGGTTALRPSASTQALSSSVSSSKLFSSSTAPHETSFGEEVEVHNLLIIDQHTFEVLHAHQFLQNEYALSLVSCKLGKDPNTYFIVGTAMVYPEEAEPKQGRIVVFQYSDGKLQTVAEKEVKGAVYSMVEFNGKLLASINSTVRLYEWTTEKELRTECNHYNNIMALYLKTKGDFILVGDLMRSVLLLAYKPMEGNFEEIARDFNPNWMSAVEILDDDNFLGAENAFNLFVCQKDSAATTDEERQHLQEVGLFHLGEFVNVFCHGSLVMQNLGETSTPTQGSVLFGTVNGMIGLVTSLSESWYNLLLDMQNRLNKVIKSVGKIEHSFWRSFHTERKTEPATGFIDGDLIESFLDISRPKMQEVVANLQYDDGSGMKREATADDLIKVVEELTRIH

As to `COC[C@@H]1CN(Cc2ccc3ncc(N4CCOCC4)cc3c2)C[C@H]1Oc1ccc2c(c1)CN([C@H]1CCC(=O)NC1=O)C2=O` [Example 29, (3S)-3-(5-{[(3S,4S)-4-(methoxymethyl)-1-{[3-(morpholin-4-yl)quinolin-6-yl]methyl}pyrrolidin-3-yl]oxy}-1-oxo-2,3-dihydro-1H-isoindol-2-yl)piperidine-2,6-dione], in experiment [1], the concentration for a half-maximal effect (EC50) is 25 nM and the “MDA-MB 231 Cell Prolif. 120 hr YMin (%)” value is on record as 17.8%. Moreover, in experiment [2], the DC50 was 1 nM and the “293T-LentiX WEE1-ePL Degradation 4 hr YMin (%)” value stood at 26.4%. For the same molecule, in experiment [3], the EC50 was 2 nM and the “MKN45 Cell Prolif. 120 hr YMin (%)” value is listed as 8.8%.

With `COC[C@@H]1CN(Cc2cc(F)c3ncc(N4CCOCC4)cc3c2)C[C@H]1Oc1ccc2c(c1)CN([C@H]1CCC(=O)NC1=O)C2=O` [Example 30, (S)-3-(5-(((3S,4S)-1-((8-fluoro-3-morpholinoquinolin-6-yl)methyl)-4-(methoxymethyl)pyrrolidin-3-yl)oxy)-1-oxoisoindolin-2-yl)piperidine-2,6-dione], in experiment [1], the concentration giving a half-maximal response (EC50) worked out at 14 nM and the “MDA-MB 231 Cell Prolif. 120 hr YMin (%)” value is 12.7%. Further, in experiment [2], the DC50 was 1 nM and the “293T-LentiX WEE1-ePL Degradation 4 hr YMin (%)” value was determined as 27.9%. Besides, in experiment [3], the EC50 turned out to be 1 nM and the “MKN45 Cell Prolif. 120 hr YMin (%)” value is on record as 7.8%.

For `COC[C@@H]1CN(Cc2cc(F)c3nc(C(C)(C)O)ccc3c2)C[C@H]1Oc1ccc2c(c1)CN([C@H]1CCC(=O)NC1=O)C2=O` [Example 32, (3S)-3-(5-{[(3S,4S)-1-{[8-fluoro-2-(2-hydroxypropan-2-yl)quinolin-6-yl]methyl}-4-(methoxymethyl)pyrrolidin-3-yl]oxy}-1-oxo-2,3-dihydro-1H-isoindol-2-yl)piperidine-2,6-dione], in experiment [1], the EC50 is 67 nM and the “MDA-MB 231 Cell Prolif. 120 hr YMin (%)” value was found to be 46.8%. Moreover, in experiment [2], the DC50 is 1 nM and the “293T-LentiX WEE1-ePL Degradation 4 hr YMin (%)” value was determined as 33.4%. Besides, in experiment [3], the EC50 is 2 nM and the “MKN45 Cell Prolif. 120 hr YMin (%)” value is on record as 11.2%.

On to `COC[C@@H]1CN(Cc2cc(F)c3nc(COC4CCOCC4)ccc3c2)C[C@H]1Oc1ccc2c(c1)CN([C@H]1CCC(=O)NC1=O)C2=O` [Example 33, (3S)-3-(5-{[(3S,4S)-1-({8-fluoro-2-[(oxan-4-yloxy)methyl]quinolin-6-yl}methyl)-4-(methoxymethyl)pyrrolidin-3-yl]oxy}-1-oxo-2,3-dihydro-1H-isoindol-2-yl)piperidine-2,6-dione], for which, in experiment [1], the EC50 came out at 28 nM and the “MDA-MB 231 Cell Prolif. 120 hr YMin (%)” value is given as 28.6%. In experiment [2], the DC50 stood at 1 nM and the “293T-LentiX WEE1-ePL Degradation 4 hr YMin (%)” value is recorded as 29.3%. Besides, in experiment [3], the EC50 came out at 1 nM and the “MKN45 Cell Prolif. 120 hr YMin (%)” value was determined as 9.7%.

Take `COC[C@@H]1CN(Cc2cc(F)c3nc(COC4CCN(C)CC4)ccc3c2)C[C@H]1Oc1ccc2c(c1)CN([C@H]1CCC(=O)NC1=O)C2=O` [Example 34, (3S)-3-(5-{[(3S,4S)-1-[(8-fluoro-2-{[(1-methylpiperidin-4-yl)oxy]methyl}quinolin-6-yl)methyl]-4-(methoxymethyl)pyrrolidin-3-yl]oxy}-1-oxo-2,3-dihydro-1H-isoindol-2-yl)piperidine-2,6-dione]: in experiment [1], the EC50 was 108 nM and the “MDA-MB 231 Cell Prolif. 120 hr YMin (%)” value was determined as 30.7%. In experiment [2], the DC50 was 4 nM and the “293T-LentiX WEE1-ePL Degradation 4 hr YMin (%)” value worked out at 21.8%. In addition, in experiment [3], the EC50 came out at 4 nM and the “MKN45 Cell Prolif. 120 hr YMin (%)” value was 6.9%.

With `COC[C@@H]1CN(Cc2cc(F)c3nc(N4CCN(CC(F)(F)F)CC4)ncc3c2)C[C@H]1Oc1ccc2c(c1)CN([C@H]1CCC(=O)NC1=O)C2=O` [Example 35, (3S)-3-(5-{[(3S,4S)-1-({8-fluoro-2-[4-(2,2,2-trifluoroethyl)piperazin-1-yl]quinazolin-6-yl}methyl)-4-(methoxymethyl)pyrrolidin-3-yl]oxy}-1-oxo-2,3-dihydro-1H-isoindol-2-yl)piperidine-2,6-dione], in experiment [1], the EC50 turned out to be 33 nM and the “MDA-MB 231 Cell Prolif. 120 hr YMin (%)” value amounted to 16.7%. Besides, in experiment [2], the DC50 came out at 1 nM and the “293T-LentiX WEE1-ePL Degradation 4 hr YMin (%)” value is listed as 28.1%. Further, in experiment [3], the half-maximal effective concentration (EC50) was found to be 2 nM and the “MKN45 Cell Prolif. 120 hr YMin (%)” value is recorded as 10.0%.

As for `COC[C@@H]1CN(Cc2cc(F)c3nc(C4CN(C(C)=O)C4)ccc3c2)C[C@H]1Oc1ccc2c(c1)CN([C@H]1CCC(=O)NC1=O)C2=O` [Example 36, (3S)-3-(5-{[(3S,4S)-1-{[2-(1-acetylazetidin-3-yl)-8-fluoroquinolin-6-yl]methyl}-4-(methoxymethyl)pyrrolidin-3-yl]oxy}-1-oxo-2,3-dihydro-1H-isoindol-2-yl)piperidine-2,6-dione], in experiment [1], the half-maximal effective concentration (EC50) stood at 141 nM and the “MDA-MB 231 Cell Prolif. 120 hr YMin (%)” value came out at 32.4%. Besides, in experiment [2], the DC50 is 9 nM and the “293T-LentiX WEE1-ePL Degradation 4 hr YMin (%)” value is 30.2%. Also, in experiment [3], the EC50 was determined as 9 nM and the “MKN45 Cell Prolif. 120 hr YMin (%)” value amounted to 10.5%.

`COC[C@@H]1CN(Cc2cc(F)c3nc(C4CN(CC(F)(F)F)C4)ccc3c2)C[C@H]1Oc1ccc2c(c1)CN([C@H]1CCC(=O)NC1=O)C2=O` [Example 37, (3S)-3-(5-{[(3S,4S)-1-({8-fluoro-2-[1-(2,2,2-trifluoroethyl)azetidin-3-yl]quinolin-6-yl}methyl)-4-(methoxymethyl)pyrrolidin-3-yl]oxy}-1-oxo-2,3-dihydro-1H-isoindol-2-yl)piperidine-2,6-dione]: in experiment [1], the EC50 was determined as 122 nM and the “MDA-MB 231 Cell Prolif. 120 hr YMin (%)” value was 6.3%. Besides, the “293T-LentiX WEE1-ePL Degradation 4 hr YMin (%)” value in experiment [2] worked out at 30.1%. Also, in experiment [3], the EC50 stood at 1 nM and the “MKN45 Cell Prolif. 120 hr YMin (%)” value turned out to be 11.0%.

On to `COC[C@@H]1CN(Cc2cc3ccc(C4CCN(CC(F)(F)F)CC4)cc3cn2)C[C@H]1Oc1ccc2c(c1)CN([C@H]1CCC(=O)NC1=O)C2=O` [Example 38, (3S)-3-(5-{[(3S,4S)-4-(methoxymethyl)-1-({7-[1-(2,2,2-trifluoroethyl)piperidin-4-yl]isoquinolin-3-yl}methyl)pyrrolidin-3-yl]oxy}-1-oxo-2,3-dihydro-1H-isoindol-2-yl)piperidine-2,6-dione], for which, in experiment [1], the EC50 was determined as 19 nM and the “MDA-MB 231 Cell Prolif. 120 hr YMin (%)” value is on record as 21.6%. In experiment [2], the DC50 stood at 1 nM and the “293T-LentiX WEE1-ePL Degradation 4 hr YMin (%)” value was found to be 28.0%. In addition, the “MKN45 Cell Prolif. 120 hr YMin (%)” value in experiment [3] came to 9.8%.

In the case of `COC[C@@H]1CN(Cc2cc3ccc(N4CCN(CC(F)(F)F)CC4)cc3cn2)C[C@H]1Oc1ccc2c(c1)CN([C@H]1CCC(=O)NC1=O)C2=O` [Example 39, (3S)-3-(5-{[(3S,4S)-4-(methoxymethyl)-1-({7-[4-(2,2,2-trifluoroethyl)piperazin-1-yl]isoquinolin-3-yl}methyl)pyrrolidin-3-yl]oxy}-1-oxo-2,3-dihydro-1H-isoindol-2-yl)piperidine-2,6-dione], in experiment [1], the 50% effective concentration (EC50) was found to be 25 nM and the “MDA-MB 231 Cell Prolif. 120 hr YMin (%)” value is 41.6%. Further, the “293T-LentiX WEE1-ePL Degradation 4 hr YMin (%)” value in experiment [2] stood at 31.6%. In experiment [3], the EC50 was determined as 1 nM and the “MKN45 Cell Prolif. 120 hr YMin (%)” value was 10.3%.

With `COC[C@@H]1CN(Cc2cc3ccc(C(C)(C)O)cc3cn2)C[C@H]1Oc1ccc2c(c1)CN([C@H]1CCC(=O)NC1=O)C2=O` [Example 40, (3S)-3-(5-{[(3S,4S)-1-{[7-(2-hydroxypropan-2-yl)isoquinolin-3-yl]methyl}-4-(methoxymethyl)pyrrolidin-3-yl]oxy}-1-oxo-2,3-dihydro-1H-isoindol-2-yl)piperidine-2,6-dione], in experiment [1], the EC50 came out at 228 nM and the “MDA-MB 231 Cell Prolif. 120 hr YMin (%)” value amounted to 1.8%. Moreover, in experiment [2], the DC50 worked out at 3 nM and the “293T-LentiX WEE1-ePL Degradation 4 hr YMin (%)” value was found to be 30.9%. Moreover, in experiment [3], the EC50 was 5 nM and the “MKN45 Cell Prolif. 120 hr YMin (%)” value came out at 10.2%.

Take `COC[C@@H]1CN(Cc2cc(F)c3nc(C(C)(C)O)ncc3c2)C[C@H]1Oc1ccc2c(c1)CN([C@H]1CCC(=O)NC1=O)C2=O` [Example 41, (3S)-3-(5-{[(3S,4S)-1-{[8-fluoro-2-(2-hydroxypropan-2-yl)quinazolin-6-yl]methyl}-4-(methoxymethyl)pyrrolidin-3-yl]oxy}-1-oxo-2,3-dihydro-1H-isoindol-2-yl)piperidine-2,6-dione]: in experiment [1], the half-maximal effective concentration (EC50) is 151 nM and the “MDA-MB 231 Cell Prolif. 120 hr YMin (%)” value turned out to be 39.1%. For the same molecule, in experiment [2], the DC50 was determined as 22 nM and the “293T-LentiX WEE1-ePL Degradation 4 hr YMin (%)” value amounted to 30.3%. In experiment [3], the half-maximal effective concentration (EC50) is 10 nM and the “MKN45 Cell Prolif. 120 hr YMin (%)” value stood at 12.5%.

Regarding `COC[C@@H]1CN(Cc2cc(F)c3nc(COC4CCOCC4)ncc3c2)C[C@H]1Oc1ccc2c(c1)CN([C@H]1CCC(=O)NC1=O)C2=O` [Example 42, (3S)-3-(5-{[(3S,4S)-1-({8-fluoro-2-[(oxan-4-yloxy)methyl]quinazolin-6-yl}methyl)-4-(methoxymethyl)pyrrolidin-3-yl]oxy}-1-oxo-2,3-dihydro-1H-isoindol-2-yl)piperidine-2,6-dione], in experiment [1], the concentration for a half-maximal effect (EC50) is 122 nM and the “MDA-MB 231 Cell Prolif. 120 hr YMin (%)” value worked out at 33.0%. In experiment [2], the DC50 turned out to be 8 nM and the “293T-LentiX WEE1-ePL Degradation 4 hr YMin (%)” value is reported as 31.5%. Further, in experiment [3], the EC50 stood at 9 nM and the “MKN45 Cell Prolif. 120 hr YMin (%)” value is 12.2%.

Values taken from US20250197374A1, “WEE1 DEGRADING COMPOUNDS AND USES THEREOF” (BRISTOL-MYERS SQUIBB COMPANY, priority 2023, published 2025).
